{"source": "ChEMBL document CHEMBL2429853", "about": "“Gardovatine, a novel Strychnos-Strychnos bisindole alkaloid with cytotoxicity from Gardneria oveta” (Bioorg Med Chem Lett, 2013)", "format_in_all_cases": "functional, cell-based", "key": {"SW480": {"test_system": "SW480", "experiment": "Cytotoxicity against human SW480 after 48 hrs by MTT assay", "details": "SW480, 48 h"}, "MCF7": {"test_system": "MCF7", "experiment": "Cytotoxicity against human MCF7 after 48 hrs by MTT assay", "details": "MCF7, 48 h"}, "SMMC-7721": {"test_system": "SMMC-7721", "experiment": "Cytotoxicity against human SMMC7721 after 48 hrs by MTT assay", "details": "SMMC-7721, 48 h"}, "A549": {"test_system": "A549", "experiment": "Cytotoxicity against human A549 after 48 hrs by MTT assay", "details": "A549, 48 h"}, "HL-60": {"test_system": "HL-60", "experiment": "Cytotoxicity against human HL60 after 48 hrs by MTT assay", "details": "HL-60, 48 h"}}, "data": [{"smiles": "C/C=C1/CN2CCc3c4n(c5ccccc35)/C=C3/[C@H]5C[C@@H]6N(CC[C@@]67c6ccccc6N(/C=C\\4[C@H]1CC2=O)[C@@H]37)C/C5=C/C", "note": "[(15S,19E,2'S,3'S,7'R,15'S,19'E)-GARDOVATINE]", "values": [{"measurement": "IC50", "setting": "SW480", "result": 16.1, "unit": "µM"}, {"measurement": "IC50", "setting": "MCF7", "result": 13.9, "unit": "µM"}, {"measurement": "IC50", "setting": "SMMC-7721", "result": 10.5, "unit": "µM"}, {"measurement": "IC50", "setting": "A549", "result": 14.2, "unit": "µM"}, {"measurement": "IC50", "setting": "HL-60", "result": 9.8, "unit": "µM"}]}, {"smiles": "C/C=C1/CN2CC[C@]34c5ccccc5N5[C@H]3[C@H]([C@H]3O[C@]6([C@@H]7N3c3ccccc3[C@@]73CCN7C/C(=C/C)[C@@H]6C[C@H]73)[C@H]5OC)[C@H]1C[C@H]24", "note": "[DIVARINE]", "values": [{"measurement": "IC50", "setting": "SW480", "result": 1.6, "unit": "µM"}, {"measurement": "IC50", "setting": "MCF7", "result": 3, "unit": "µM"}, {"measurement": "IC50", "setting": "SMMC-7721", "result": 3.2, "unit": "µM"}, {"measurement": "IC50", "setting": "A549", "result": 3.2, "unit": "µM"}, {"measurement": "IC50", "setting": "HL-60", "result": 1.2, "unit": "µM"}]}]}
